The text below walks through data of patent US20250114374A1, “BCL-2 INHIBITORS” (Newave Pharmaceutical Inc., priority 2021, published 2025).

This assay relates to RS4; 11 with G101V mutation. Put plainly: In vitro anti-proliferation assay (ATPlite luminescence) in BCL-2-dependent ALL cell line RS4;11 with G101V mutation. In kind it is cell-based. Particulars: read-out: RS411-G101V IC50. As for the experimental part:
Cell antiproliferation was assayed by PerkinElmer ATPlite™ Luminescence Assay System. Briefly, the various test cancer cell lines were plated at a density of about 1×10^4 cells per well in Costar 96-well plates, and were incubated with different concentrations of compounds for about 72 hours in medium supplemented with 10% FBS. One lyophilized substrate solution vial was then reconstituted by adding 5 mL of substrate buffer solution, and was agitated gently until the solution was homogeneous. About 50 μL of mammalian cell lysis solution was added to 100 μL of cell suspension per well of a microplate, and the plate was shaken for about five minutes in an orbital shaker at ˜700 rpm. This procedure was used to lyse the cells and to stabilize the ATP. Next, 50 μL substrate solution was added to the wells and microplate was shaken for five minutes in an orbital shaker at ˜700 rpm. Finally, the luminescence was measured by a PerkinElmer TopCount® Microplate Scintillation Counter. Such assays, carried out with a range of doses of test compounds, allowed the determination of the cellular anti-antiproliferative IC50 of the compounds of the present invention.
The following table lists the IC50 values of another study for certain compounds of the invention.

The mark [1] stands for this setting: cellular anti-proliferative IC50, about 72 hours, medium with 10% FBS, ATPlite.

Like-named read-outs stand apart in the source and are kept apart here.

Consider `Cc1ccccc1[C@@H]1CN([C@@H]2CCOc3cc(F)c(F)cc32)CCN1C1CC2(CCN(c3ccc(C(=O)NS(=O)(=O)c4cc5c(c([N+](=O)[O-])c4)N[C@H](C4CCOCC4)CO5)c(N4c5cc6cc[nH]c6nc5O[C@H]5COCC[C@@H]54)c3)CC2)C1` [Example 171, 4-{2-[(2R)-4-[(4R)-6,7-difluoro-3,4-dihydro-2H-1-benzopyran-4-yl]-2-(2-methylphenyl)piperazin-1-yl]-7-azaspiro[3.5]nonan-7-yl}-2-[(3R,8S)-2,5-dioxa-9,15,17-triazatetracyclo[8.7.0.0^{3,8}.0^{12,16}]heptadeca-1(10),11,13,16-tetraen-9-yl]-N-[(3R)-5-nitro-3-(oxan-4-yl)-3,4-dihydro-2H-1,4-benzoxazin-7-ylsulfonyl]benzamide], for which the IC50 under setting [1] turned out to be 220 nM.
Still for that read-out and setting: the value for `COc1cc(CN2CCN(C3CC4(CCN(c5ccc(C(=O)NS(=O)(=O)c6ccc(NCC7CCC(C)(O)CC7)c([N+](=O)[O-])c6)c(N6c7cc8cc[nH]c8nc7O[C@H]7COCC[C@@H]76)c5)CC4)C3)[C@H](c3ccccc3C)C2)cnc1N1CCOC[C@H]1C` (stereo partly drawn) [Example 139, 2-[(3R,8S)-2,5-dioxa-9,15,17-triazatetracyclo[8.7.0.0^{3,8}.0^{12,16}]heptadeca-1(10),11,13,16-tetraen-9-yl]-4-{2-[(2R)-4-({5-methoxy-6-[(3R)-3-methylmorpholin-4-yl]pyridin-3-yl}methyl)-2-(2-methylphenyl)piperazin-1-yl]-7-azaspiro[3.5]nonan-7-yl}-N-[3-nitro-4-({[(1r,4r)-4-hydroxy-4-methylcyclohexyl]methyl}amino)benzenesulfonyl]benzamide] was 3.5 nM.
The same measure, in the same setting: the value for `CC(C)Oc1ccccc1[C@H]1CN(C2CCN(C3CCOCC3)CC2)CCN1C1CC2(CCN(c3ccc(C(=O)NS(=O)(=O)c4ccc(NC[C@H]5CC[C@](C)(O)CC5)c([N+](=O)[O-])c4)c(N4c5cc6cc[nH]c6nc5O[C@H]5COCC[C@@H]54)c3)CC2)C1` [Example 162, N-((4-((((1r,4r)-4-hydroxy-4-methylcyclohexyl)methyl)amino)-3-nitrophenyl)sulfonyl)-4-(2-((S)-2-(2-isopropoxyphenyl)-4-(1-(tetrahydro-2H-pyran-4-yl)piperidin-4-yl)piperazin-1-yl)-7-azaspiro[3.5]nonan-7-yl)-2-((5aS,9aR)-6,7,9,9a-tetrahydro-1H-pyrano[3,4-b]pyrrolo[3′,2′:5,6]pyrido[3,2-e][1,4]oxazin-5(5aH)-yl)benzamide] was 49.9 nM.
Turning to `Cc1ccccc1[C@@H]1CN([C@H]2CCOc3c(F)cc(F)cc32)CCN1C1CC2(CCN(c3ccc(C(=O)NS(=O)(=O)c4cc5c(c([N+](=O)[O-])c4)N[C@H](C4CCOCC4)CO5)c(N4c5cc6cc[nH]c6nc5O[C@H]5COCC[C@@H]54)c3)CC2)C1` [Example 197, 4-(2-((R)-4-((S)-6,8-difluorochroman-4-yl)-2-(o-tolyl)piperazin-1-yl)-7-azaspiro[3.5]nonan-7-yl)-N-(((R)-5-nitro-3-(tetrahydro-2H-pyran-4-yl)-3,4-dihydro-2H-benzo[b][1,4]oxazin-7-yl)sulfonyl)-2-((5aS,9aR)-6,7,9,9a-tetrahydro-1H-pyrano[3,4-b]pyrrolo[3′,2′:5,6]pyrido[3,2-e][1,4]oxazin-5(5aH)-yl)benzamide], the IC50 (Homo sapiens, RS4-11, 72 h) was found to be 328 nM.
Regarding `COc1cc(CN2CCN(C3CC4(CCN(c5ccc(C(=O)NS(=O)(=O)c6ccc(NCC7CCC(C)(O)CC7)c([N+](=O)[O-])c6)c(N6c7cc8cc[nH]c8nc7O[C@H]7COCC[C@@H]76)c5)CC4)C3)[C@@H](c3ccccc3OC(C)C)C2)cnc1C` (stereo partly drawn) [Example 135, 2-[(3R,8S)-2,5-dioxa-9,15,17-triazatetracyclo[8.7.0.0^{3,8}.0^{12,16}]heptadeca-1(10),11,13,16-tetraen-9-yl]-4-{2-[(2S)-2-(2-isopropoxyphenyl)-4-[(5-methoxy-6-methylpyridin-3-yl)methyl]piperazin-1-yl]-7-azaspiro[3.5]nonan-7-yl}-N-[3-nitro-4-({[(1r,4r)-4-hydroxy-4-methylcyclohexyl]methyl}amino)benzenesulfonyl]benzamide], the IC50 under setting [1] worked out at 11.2 nM.
